Measurements reported in patent US8367349B2, “Methods for identifying modulators of LRRK2” (Medical Research Council, priority 2010, dated 2013).

Assays:
[1] = molecular target: T1, GFP-LRRK2 (Homo sapiens, UniProt Q5S007); experiment: Kinase inhibitor panel: Ser910/Ser935 phosphorylation in HEK293 cells stably expressing GFP-LRRK2; format: cell-based; settings: HEK293 GFP-LRRK2, 90 minutes, inhibitors at the higher limits of concentrations routinely employed
T1 construct: immunoprecipitates of stably expressed full length GFP-LRRK2; expressed in transfected cells
Protocol: FIG. 16. HEK-293 stably expressing GFP-LRRK2 were treated with DMSO, or the following inhibitors dissolved in DMSO, at the indicated concentration for 90 minutes. […] Total LRRK2 was assessed by GFP immunoblot. The immunoblots shown are representative of 2 independent experiments. Cell transfections were performed by the polyethylenimine method. Where inhibitors are utilized, they were dissolved in DMSO and used at the indicated concentrations with an equivalent volume of DMSO used as a control. The final concentration of DMSO in the culture medium was never more than 0.1% (v/v). Inhibitors were added to the culture medium for the indicated times before lysis. Per 15 cm dish, HEK 293 cells were lysed with 1.0 ml and 3T3 cells were lysed with 0.6 ml of lysis buffer supplemented with the indicated detergent and clarified by centrifugation at 16,000×g at 4° C. for 10 minutes. After induction and inhibitor treatment, T-REx-GFP expressing cells were lysed at room temperature with SDS lysis buffer after washing with PBS. […] Protein concentrations were determined using the Bradford method with BSA as the standard. […] Immune complexes were washed twice with lysis buffer supplemented with 0.3 M NaCl and twice with Buffer A. Precipitates were either used as a source of kinase or immediately analyzed by immunoblot. […] DIG 14-3-3 was detected with HRP labelled anti-DIG Fab fragments (Roche).

[2] = molecular target: LRRK2[Ala2016Thr] (Homo sapiens, UniProt Q5S007, A2016T); settings: relative to normally sensitive LRRK2; cited from earlier work
[3] = molecular target: T2, wild type FLAG-LRRK2 (Homo sapiens, UniProt Q5S007); experiment: Ser910/Ser935 dephosphorylation of wild type FLAG-LRRK2 in 293 cells; format: cell-based
T2 construct: overexpressed full length human FLAG-LRRK2 expressed in HEK-293 cells; expressed in transfected cells; host or cells: HEK-293 cells, transient transfection
Protocol: (§1) FIG. 5. […] Cells were lysed in lysis buffer supplemented with 0.5% NP40 and […] and subjected to anti-FLAG immunoprecipitation. Immunoprecipitates were resolved on 4-12% Novex SDS-polyacrylamide gels and subjected to immunoblot with FLAG (total LRRK2), anti-pS910, anti-pS935 as well as a 14-3-3 overlay assay.
(§2) Cell transfections were performed by the polyethylenimine method. Where inhibitors are utilized, they were dissolved in DMSO and used at the indicated concentrations with an equivalent volume of DMSO used as a control. The final concentration of DMSO in the culture medium was never more than 0.1% (v/v). Inhibitors were added to the culture medium for the indicated times before lysis. Per 15 cm dish, HEK 293 cells were lysed with 1.0 ml and 3T3 cells were lysed with 0.6 ml of lysis buffer supplemented with the indicated detergent and clarified by centrifugation at 16,000×g at 4° C. for 10 minutes. After induction and inhibitor treatment, T-REx-GFP expressing cells were lysed at room temperature with SDS lysis buffer after washing with PBS. SDS lysates were boiled and sonicated to reduce viscosity. When not used immediately, all lysate supernatants were snap frozen in liquid nitrogen and stored at −80° C. until use. Protein concentrations were determined using the Bradford method with BSA as the standard.
(§3) Immunological procedures. […]

[4] = molecular target: T3, endogenous LRRK2 (Mus musculus, UniProt Q5S006); experiment: Ser910/Ser935 phosphorylation and 14-3-3 binding of endogenous LRRK2 in Swiss 3T3 cells; format: cell-based; settings: 90 minutes
T3 construct: endogenous in cells; host or cells: Swiss 3T3 cells
Protocol: as §2
Immunological procedures. Cell lysates (10-30 μg) were resolved by electrophoresis on SDS polyacrylamide gels or Novex 4-12% gradient gels, and electroblotted to nitrocellulose membranes. Membranes were blocked with 5% skimmed milk (w/v) in 50 mM Tris/HCl, pH 7.5, 0.15 M NaCl and 0.1% (v/v) Tween (TBST Buffer). […]

[5] = test system: LRRK2[A2016T] or LRRK2[A2016T+G2019S]; experiment: Cytoplasmic localisation of drug resistant GFP-LRRK2[A2016T] or [A2016T+G2019S] in T-REx cells; format: cell-based, human
Protocol: (§4) FIG. 14. Disruption of 14-3-3 binding induces accumulation of LRRK2 within cytoplasmic aggregates. A.) Stable-inducible T-REx cells lines harboring the indicated forms of LRRK2 were induced for 24 hours with 0.1 μg/ml doxycycline to induce expression of GFP-LRRK2. The indicated cell lines were treated in the absence or presence of the indicated dose of H-1152 for 90 min prior to fixation. Representative fluorescent micrographs of GFP-LRRK2 localisation are shown. Cytoplasmic aggregates of GFP-LRRK2 are indicated with white arrowheads. B.) Fluorescent micrographs representative of cultures of the indicated forms GFP-LRRK2 are shown. Cytoplasmic aggregates of GFP-LRRK2 are indicated with white arrowheads. Localisation analyses were performed in duplicate, and similar results observed in two independent experiments.
(§5) Fluorescence Microscopy. HEK-293 Flp-in T-REx were purchased from Invitrogen and stable cells harbouring GFP tagged wild type and mutant forms of LRRK2 were generated using standard protocols. Cells were plated in 4-well glass bottom, CC2 coated chamber slides (Nunc). One day after plating, cells were induced with 0.1 μg/ml doxycycline and 24 hr later, cells were fixed in 4% paraformaldehyde buffered in phosphate buffered saline (purchased from USB, # 19943). […]

[6] = molecular target: T4, LRRK2[G2019S] (Homo sapiens, UniProt Q5S007, G2019S); experiment: Ser910/Ser935 phosphorylation and 14-3-3 binding of Flag-LRRK2[G2019S] in HEK-293 cells; format: cell-based
T4 construct: expressed in transfected cells; host or cells: HEK-293 cells, transient transfection
Protocol: as §1, §2, §3

[7] = molecular target: T3, endogenous LRRK2; experiment: Kinase activity of endogenous LRRK2 immunoprecipitated from inhibitor-treated Swiss 3T3 cells after wash-out; format: biochemical; settings: 30 μM H1152 or 10 μM sunitinib for 2 h, inhibitor washed off, 20 μM Nictide
Protocol: Immunoprecipitates were washed with lysis buffer containing 0.5 M NaCl to remove inhibitor and were then incubated in kinase buffer containing 20 μM Nictide with the presence or absence of magnesium-ATP for 30 min. Following incubation, immunoprecipitates were centrifuged at 8000 rpm for 0.5 min and the supernatant spotted on to P81 paper for measurement of LRRK2 kinase activity. Sample buffer was added to the pelleted beads and LRRK2 S910 and S935 phosphorylation was quantified following immunoblot analysis. A membrane was also subjected to autoradiography to assess LRRK2 autophosphorylation.
LRRK2 Immunoprecipitation Kinase assays. Peptide Kinase Assays were set up in a total volume of 50 μl with immunoprecipitated LRRK2 as a source of kinase, in 50 mM Tris pH 7.5, 0.1 mM EGTA, 10 mM MgCl2 and 0.1 mM [γ-^32P]ATP (˜500-1000 cpm/pmol) in the presence of 30 μM Nictide peptide substrate. Reactions were terminated by applying 30 μl of the reaction mixture on to P81 phosphocellulose paper and immersion in 50 mM phosphoric acid. After extensive washing, reaction products were quantitated by Cerenkov counting. One half of the remaining reaction was subjected to immunoblot analysis using the Odyssey LICOR system and specific activity is represented as cpm/LICOR independent density values.

[8] = test system: GFP-LRRK2 or GFP-LRRK2[G2019S]; experiment: Cytoplasmic localisation of GFP-LRRK2 or GFP-LRRK2[G2019S] in T-REx cells (fluorescence microscopy); format: cell-based, human; settings: drug sensitive GFP-LRRK2 or GFP-LRRK2[G2019S], 90 min before fixation
Protocol: as §4, §5

[9] = molecular target: T5, LRRK2[A2016T+G2019S] (Homo sapiens, UniProt Q5S007, A2016T/G2019S); experiment: Ser910/Ser935 phosphorylation and 14-3-3 binding of drug resistant LRRK2[A2016T+G2019S] in HEK-293 cells; format: cell-based; settings: HEK-293 over-expressing LRRK2[A2016T+G2019S], 90 minutes
T5 construct: expressed in transfected cells; host or cells: HEK-293 cells, transient transfection
Protocol: as §1, §2, §3

[10] = molecular target: LRRK2 (Homo sapiens, UniProt Q5S007); settings: wild type LRRK2, in vitro; read-out: IC50 for inhibition of LRRK2; cited from earlier work
Sequence of LRRK2 (Q5S007 whole entry): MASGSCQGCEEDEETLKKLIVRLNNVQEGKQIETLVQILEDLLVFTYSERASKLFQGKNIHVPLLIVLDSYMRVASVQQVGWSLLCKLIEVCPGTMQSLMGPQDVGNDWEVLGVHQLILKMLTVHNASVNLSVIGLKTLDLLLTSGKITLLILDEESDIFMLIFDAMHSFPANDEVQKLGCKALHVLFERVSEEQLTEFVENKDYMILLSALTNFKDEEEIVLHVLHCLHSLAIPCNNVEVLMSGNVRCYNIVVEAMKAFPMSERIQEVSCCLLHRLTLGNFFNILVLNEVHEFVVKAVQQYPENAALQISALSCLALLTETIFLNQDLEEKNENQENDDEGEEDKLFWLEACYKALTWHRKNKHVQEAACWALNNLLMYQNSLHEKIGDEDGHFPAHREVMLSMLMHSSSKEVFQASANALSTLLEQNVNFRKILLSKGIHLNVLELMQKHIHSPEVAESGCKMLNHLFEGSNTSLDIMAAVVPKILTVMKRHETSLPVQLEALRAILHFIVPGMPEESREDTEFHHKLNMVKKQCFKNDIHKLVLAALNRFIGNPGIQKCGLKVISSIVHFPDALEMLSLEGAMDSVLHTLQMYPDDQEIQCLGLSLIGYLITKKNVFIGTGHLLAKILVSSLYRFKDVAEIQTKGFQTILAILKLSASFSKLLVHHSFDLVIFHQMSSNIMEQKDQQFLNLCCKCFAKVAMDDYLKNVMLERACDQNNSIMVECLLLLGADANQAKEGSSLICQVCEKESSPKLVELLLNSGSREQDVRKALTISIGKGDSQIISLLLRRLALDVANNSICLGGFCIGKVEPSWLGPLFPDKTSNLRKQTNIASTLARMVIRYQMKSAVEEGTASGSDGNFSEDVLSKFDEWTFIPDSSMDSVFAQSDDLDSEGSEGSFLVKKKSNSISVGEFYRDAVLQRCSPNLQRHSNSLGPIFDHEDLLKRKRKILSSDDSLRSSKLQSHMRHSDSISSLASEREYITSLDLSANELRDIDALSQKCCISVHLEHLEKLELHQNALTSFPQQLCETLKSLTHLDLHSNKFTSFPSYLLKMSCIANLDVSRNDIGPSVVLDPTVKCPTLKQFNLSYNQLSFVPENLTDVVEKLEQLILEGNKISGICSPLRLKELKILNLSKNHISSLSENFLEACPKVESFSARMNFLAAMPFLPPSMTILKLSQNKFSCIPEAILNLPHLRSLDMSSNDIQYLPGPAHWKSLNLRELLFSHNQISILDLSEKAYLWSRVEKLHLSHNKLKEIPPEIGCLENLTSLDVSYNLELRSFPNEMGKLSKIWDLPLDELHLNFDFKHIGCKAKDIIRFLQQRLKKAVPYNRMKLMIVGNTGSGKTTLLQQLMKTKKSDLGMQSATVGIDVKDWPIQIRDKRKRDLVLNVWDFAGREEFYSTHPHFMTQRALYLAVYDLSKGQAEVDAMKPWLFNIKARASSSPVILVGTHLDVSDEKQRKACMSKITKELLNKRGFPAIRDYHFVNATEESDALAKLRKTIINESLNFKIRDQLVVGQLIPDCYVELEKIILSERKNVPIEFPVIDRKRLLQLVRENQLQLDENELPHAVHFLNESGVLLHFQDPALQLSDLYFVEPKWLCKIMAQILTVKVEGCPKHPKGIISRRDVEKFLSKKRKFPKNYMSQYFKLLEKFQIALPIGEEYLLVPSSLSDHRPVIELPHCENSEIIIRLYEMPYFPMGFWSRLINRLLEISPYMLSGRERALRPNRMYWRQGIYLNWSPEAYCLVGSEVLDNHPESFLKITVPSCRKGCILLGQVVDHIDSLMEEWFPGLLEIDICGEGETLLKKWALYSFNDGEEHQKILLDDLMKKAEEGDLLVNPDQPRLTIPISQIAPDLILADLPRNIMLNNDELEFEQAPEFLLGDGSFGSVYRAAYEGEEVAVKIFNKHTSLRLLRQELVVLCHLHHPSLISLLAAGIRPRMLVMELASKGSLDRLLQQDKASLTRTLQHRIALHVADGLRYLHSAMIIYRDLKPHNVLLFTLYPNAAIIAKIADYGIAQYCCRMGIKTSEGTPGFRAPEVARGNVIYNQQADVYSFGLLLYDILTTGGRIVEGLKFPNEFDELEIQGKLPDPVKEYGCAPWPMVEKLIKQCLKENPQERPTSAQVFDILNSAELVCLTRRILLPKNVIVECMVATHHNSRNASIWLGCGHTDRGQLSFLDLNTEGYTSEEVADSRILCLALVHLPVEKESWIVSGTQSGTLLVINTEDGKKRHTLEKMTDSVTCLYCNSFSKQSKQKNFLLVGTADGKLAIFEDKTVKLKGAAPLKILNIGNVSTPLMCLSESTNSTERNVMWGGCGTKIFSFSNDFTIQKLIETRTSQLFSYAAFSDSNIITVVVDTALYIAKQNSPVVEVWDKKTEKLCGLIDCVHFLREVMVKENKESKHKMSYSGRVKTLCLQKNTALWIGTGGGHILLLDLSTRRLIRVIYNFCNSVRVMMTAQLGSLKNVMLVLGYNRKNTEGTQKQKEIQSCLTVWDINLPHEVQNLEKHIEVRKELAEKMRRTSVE

T3 sequence (Q5S006 whole entry): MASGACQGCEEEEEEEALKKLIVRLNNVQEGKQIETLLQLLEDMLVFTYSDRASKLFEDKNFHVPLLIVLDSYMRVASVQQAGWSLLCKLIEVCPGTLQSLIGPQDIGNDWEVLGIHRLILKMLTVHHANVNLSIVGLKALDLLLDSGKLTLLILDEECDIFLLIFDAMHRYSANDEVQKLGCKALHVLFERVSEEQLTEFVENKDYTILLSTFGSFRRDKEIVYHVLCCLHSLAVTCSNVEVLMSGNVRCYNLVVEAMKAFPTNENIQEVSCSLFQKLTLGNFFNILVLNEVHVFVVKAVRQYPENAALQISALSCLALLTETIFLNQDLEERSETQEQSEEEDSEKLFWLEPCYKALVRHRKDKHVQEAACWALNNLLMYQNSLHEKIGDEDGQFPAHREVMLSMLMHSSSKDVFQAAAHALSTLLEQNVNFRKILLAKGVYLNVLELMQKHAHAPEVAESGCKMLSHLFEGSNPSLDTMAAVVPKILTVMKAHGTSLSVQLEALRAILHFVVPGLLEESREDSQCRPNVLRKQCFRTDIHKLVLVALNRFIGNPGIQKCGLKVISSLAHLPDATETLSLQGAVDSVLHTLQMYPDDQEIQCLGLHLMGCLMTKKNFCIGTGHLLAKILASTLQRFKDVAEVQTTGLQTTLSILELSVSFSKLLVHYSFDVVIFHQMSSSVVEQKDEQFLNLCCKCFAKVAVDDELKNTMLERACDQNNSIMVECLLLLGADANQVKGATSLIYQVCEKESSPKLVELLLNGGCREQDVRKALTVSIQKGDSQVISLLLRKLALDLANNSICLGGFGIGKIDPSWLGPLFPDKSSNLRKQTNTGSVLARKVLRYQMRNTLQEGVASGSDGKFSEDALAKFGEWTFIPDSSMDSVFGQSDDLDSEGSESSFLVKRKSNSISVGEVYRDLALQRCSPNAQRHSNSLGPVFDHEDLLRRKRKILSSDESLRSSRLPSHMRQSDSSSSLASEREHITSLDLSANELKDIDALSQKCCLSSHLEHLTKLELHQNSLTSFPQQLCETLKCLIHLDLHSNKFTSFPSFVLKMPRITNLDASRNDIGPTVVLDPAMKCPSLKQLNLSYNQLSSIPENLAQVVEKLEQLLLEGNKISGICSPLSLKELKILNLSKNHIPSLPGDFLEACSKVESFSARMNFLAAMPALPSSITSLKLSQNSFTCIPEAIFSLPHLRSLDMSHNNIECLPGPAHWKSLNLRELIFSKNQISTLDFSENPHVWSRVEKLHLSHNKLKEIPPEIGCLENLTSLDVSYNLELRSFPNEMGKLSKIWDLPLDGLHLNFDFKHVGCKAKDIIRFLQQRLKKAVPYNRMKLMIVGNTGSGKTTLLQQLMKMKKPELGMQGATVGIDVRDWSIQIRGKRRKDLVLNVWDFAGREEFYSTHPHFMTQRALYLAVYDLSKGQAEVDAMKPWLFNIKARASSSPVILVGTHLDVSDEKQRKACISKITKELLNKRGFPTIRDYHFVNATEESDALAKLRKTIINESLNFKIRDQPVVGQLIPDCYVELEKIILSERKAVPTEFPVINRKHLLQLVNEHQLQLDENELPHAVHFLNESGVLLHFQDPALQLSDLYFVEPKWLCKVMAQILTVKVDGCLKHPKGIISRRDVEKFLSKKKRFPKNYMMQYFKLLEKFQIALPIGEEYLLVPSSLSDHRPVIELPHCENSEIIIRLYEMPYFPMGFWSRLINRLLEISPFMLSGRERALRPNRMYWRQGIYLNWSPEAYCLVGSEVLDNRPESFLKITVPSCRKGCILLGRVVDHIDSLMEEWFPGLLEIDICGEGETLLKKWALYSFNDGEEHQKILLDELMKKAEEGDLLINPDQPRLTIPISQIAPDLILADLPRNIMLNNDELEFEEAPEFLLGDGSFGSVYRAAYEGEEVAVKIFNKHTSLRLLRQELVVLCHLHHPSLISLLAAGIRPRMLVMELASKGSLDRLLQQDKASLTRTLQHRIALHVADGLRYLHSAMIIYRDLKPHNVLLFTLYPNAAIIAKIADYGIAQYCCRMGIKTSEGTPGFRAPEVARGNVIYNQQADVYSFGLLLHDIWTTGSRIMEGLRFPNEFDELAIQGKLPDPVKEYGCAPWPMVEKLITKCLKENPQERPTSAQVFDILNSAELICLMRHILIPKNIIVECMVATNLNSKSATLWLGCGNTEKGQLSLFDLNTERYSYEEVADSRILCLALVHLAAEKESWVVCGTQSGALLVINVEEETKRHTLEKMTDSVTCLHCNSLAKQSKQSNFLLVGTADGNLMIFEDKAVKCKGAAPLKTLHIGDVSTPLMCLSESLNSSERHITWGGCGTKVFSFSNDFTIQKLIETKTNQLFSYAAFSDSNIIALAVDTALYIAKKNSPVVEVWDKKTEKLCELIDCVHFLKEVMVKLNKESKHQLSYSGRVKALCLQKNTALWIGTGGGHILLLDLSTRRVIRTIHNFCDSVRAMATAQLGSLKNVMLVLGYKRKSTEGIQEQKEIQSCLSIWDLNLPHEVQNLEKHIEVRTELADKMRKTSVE
T4 sequence (Q5S007 whole entry G2019S): as the sequence (Q5S007 whole entry) above, with G2019S counted along it
T1 sequence (Q5S007 whole entry): as the sequence (Q5S007 whole entry) above
T2 sequence (Q5S007 whole entry): as above

| SMILES | dephosphorylation of Ser910/Ser935 [1] | fold less sensitive: drug resistant LRRK2[Ala2016Thr] mutant [2] | potency at inducing dephosphorylation of wild type FLAG-LRRK2 compared with endogenous LRRK2 in Swiss 3T3 cells [3] | concentration inducing almost complete dephosphorylation of Ser910 and Ser935 and loss of 14-3-3 binding [4] | dephosphorylation of endogenous LRRK2 at Ser910 and Ser935 with concomitant reduction in 14-3-3 binding ([4]; increasing amounts of inhibitor) | accumulation of LRRK2 within cytoplasmic pools [5] | potency in inducing dephosphorylation and impairing 14-3-3 binding: LRRK2[G2019S] compared with wild type LRRK2 ([6]; HEK-293 cells, Flag-LRRK2 forms) | dephosphorylation of LRRK2[G2019S] at Ser910 and Ser935 and disruption of 14-3-3 binding ([6]; HEK-293 over-expressing LRRK2[G2019S], 90 minutes) | endogenous LRRK2 kinase activity after treatment of cells [7] | accumulation of LRRK2 within cytoplasmic pools [8] | inhibition of Ser910 or Ser935 phosphorylation or 14-3-3 binding of drug resistant mutant [9] | IC50 [10] |
| --- | --- | --- | --- | --- | --- | --- | --- | --- | --- | --- | --- | --- |
| N#CC(c1ccnc(NCCc2cccnc2)n1)c1nc2ccccc2s1 (stereo not drawn) [AS601245] | did not induce dephosphorylation | – | – | – | – | – | – | – | – | – | – | – |
| Cc1cncc2cccc(S(=O)(=O)N3CCCNC[C@@H]3C)c12 [H-1152] | – | 32 fold | similar | 10 to 30 µM | dose dependent dephosphorylation | no cytoplasmic pool accumulation | more potent | dose-dependent dephosphorylation | did not affect | marked accumulation of LRRK2 within cytoplasmic pools | neither H-1152 nor sunitinib significantly inhibited | 150 nM |
